Measurements published in patent US20180282735A1, “PHARMACEUTICAL COMPOSITION FOR NEURODEGENERATIVE BRAIN DISEASE AND SCREENING METHOD FOR THE SAME” (MACROGEN, INC., priority 2017, published 2018).

Key:
HEK293 tau-BiFC cells = assay type: cell-based; conditions: for level of tau phosphorylation: HEK293 Tau-BiFC cell line, FIG. 5b; for tau accumulation (tau-BiFC): HEK293 tau-BiFC, FIG. 5
From the text: (§1) The establishment of the HEK293/tau-BiFC cell line was previously described (Tak H, Hague M M, Kim M J, Lee J H, Baik J H, Kim Y et al. Himolecular fluorescence complementation; lighting-up Tau-Tau interaction in living cells. PLOS One 2013; 8: e81682). Venus fluorescence protein amino-terminal fragment (VN 173) and carboxyl-terminal fragment (VC 155), which are independently non-fluorescent, were fused to full-length tau proteins. For neuronal cell expression, tau-BiFC constructs (pCMV6-hTau40-VN173 and pCMV6-hTau-VC155) were transfected into SH-SY5Y. SH-SY5Y/tau-BiFC stable cells were selected using Geneticin (200 μg/ml). […] All established cell lines were grown in Dulbecco's modified eagle medium containing 10% fetal bovine serum, […] and 1 μg/ml of Geneticin at 37° C. in a humidified atmosphere containing 5% CO2.
(§2) For microscopic image analysis, HEK293 tau-BiFC and SH-SY5Y tau-BiFC cells were plated onto a black 384-well plate. The next day, tau-BiFC cells were treated with okadaic acid (O8010, Sigma), cyclosporine A (C3662, Sigma) or deltamethrin (D9315, Sigma) at various concentrations. After incubation for 29 hours, the plate was imaged using the Operetta® high contents imaging system (PerkinElmer). The cellular intensities of tau-BiFC fluorescence were analyzed using the Harmony® 3.1 analysis software. Each experiment was performed in triplicate. The bar graphs for BiFC intensity indicate the means ±SEM from three independent experiments.

SH-SY5Y tau-BiFC cells = assay type: cell-based; conditions: for level of tau phosphorylation: SH-SY5Y Tau-BiFC cell line, FIG. 5b; for dose dependence of tau phosphorylation level: SH-SY5Y Tau-BiFC, various concentrations, 29 hours, FIG. 5c; for tau accumulation (tau-BiFC): SH-SY5Y tau-BiFC, FIG. 5
From the text: as §1, §2

PP2B = molecular target: T1, PP2B (Homo sapiens, UniProt Q08209); conditions: by binding to cyclophilin or FKBP respectively; cited from earlier work
T1 construct: endogenous in cells; host or cells: SH-SY5Y/tau-BiFC and HEK293/tau-BiFC cells

CC1(C)[C@H](C(=O)O[C@H](C#N)c2cccc(Oc3ccccc3)c2)[C@@H]1C=C(Br)Br [deltamethrin]
level of tau phosphorylation (HEK293 tau-BiFC cells): increased | tau accumulation (tau-BiFC) (HEK293 tau-BiFC cells): increase of tau accumulation | level of tau phosphorylation (SH-SY5Y tau-BiFC cells): increased | dose dependence of tau phosphorylation level (SH-SY5Y tau-BiFC cells): declining trend after the threshold of 3 μM | tau accumulation (tau-BiFC) (SH-SY5Y tau-BiFC cells): increase of tau accumulation

C=C1[C@@H](O)[C@@H]2O[C@]3(CC[C@H](/C=C/[C@@H](C)[C@@H]4CC(C)=C[C@@]5(O[C@H](C[C@@](C)(O)C(=O)O)CC[C@H]5O)O4)O3)CC[C@H]2O[C@@H]1[C@@H](O)C[C@H](C)[C@H]1O[C@@]2(CCCCO2)CC[C@H]1C [okadaic acid]
level of tau phosphorylation (HEK293 tau-BiFC cells): increased | intensity of tau phosphorylation (HEK293 tau-BiFC cells; HEK 293 cell line, FIG. 5d): higher intensity of tau phosphorylation | tau accumulation (tau-BiFC) (HEK293 tau-BiFC cells): increase of tau accumulation | level of tau phosphorylation (SH-SY5Y tau-BiFC cells): increased | dose dependence of tau phosphorylation level (SH-SY5Y tau-BiFC cells): elevated the level of tau phosphorylation in a dose-dependent manner | tau accumulation (tau-BiFC) (SH-SY5Y tau-BiFC cells): increase of tau accumulation

cyclosporine A
level of tau phosphorylation (HEK293 tau-BiFC cells): increased | tau accumulation (tau-BiFC) (HEK293 tau-BiFC cells): increase of tau accumulation | level of tau phosphorylation (SH-SY5Y tau-BiFC cells): increased | dose dependence of tau phosphorylation level (SH-SY5Y tau-BiFC cells): elevated the level of tau phosphorylation in a dose-dependent manner | tau accumulation (tau-BiFC) (SH-SY5Y tau-BiFC cells): increase of tau accumulation | enzyme activity inhibition (PP2B): inhibits specifically enzyme activity
